# According to patent US10221138B2, “Biaryl derivatives as GPR120 agonists” (LG CHEM, LTD., priority 2013, dated 2019):
# Molecular target: T1, hGPR120 (Homo sapiens, UniProt Q5NUL3)
# T1 construct: expressed in transfected cells; host or cells: CHO-K1
# T1 sequence (Q5NUL3 1-361): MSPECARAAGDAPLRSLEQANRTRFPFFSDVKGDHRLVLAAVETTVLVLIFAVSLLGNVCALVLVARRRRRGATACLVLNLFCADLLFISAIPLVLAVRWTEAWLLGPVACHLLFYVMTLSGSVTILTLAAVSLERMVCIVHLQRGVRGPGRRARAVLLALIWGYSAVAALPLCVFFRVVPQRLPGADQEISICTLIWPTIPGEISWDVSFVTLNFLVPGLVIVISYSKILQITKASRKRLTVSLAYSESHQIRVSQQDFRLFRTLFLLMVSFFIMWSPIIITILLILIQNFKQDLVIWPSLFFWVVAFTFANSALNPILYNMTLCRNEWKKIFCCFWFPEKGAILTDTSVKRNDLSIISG
# Test: Measurement of activity of GPR120 agonist (cell-based calcium fluorescence assay)
# Conditions: CHO-K1 cells expressing Ga16 and hGPR120, Calcium 5 dye fluorescence; activity class; read-out: EC50
# How it was run: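 CHO-K1 cells co-expressing Gα16 and hGPR120, plated 18 h, loaded with Calcium 5 dye for 1 h at 37 °C, then given serially diluted agonists (final 0.5% DMSO). Fluorescence increase expressed as relative % of the 1% DMSO-only signal.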
row,Compound,EC50
1,"CCCNc1ccccc1-c1cc(F)c(SCCCC(=O)O)c(F)c1 [Example 166, 4-(3,5-difluoro-2′-propylamino-biphenyl-4-ylsulfanyl)-butyric acid]",< 200 nM
2,"O=C(O)CCCOc1c(F)cc(-c2cccnc2OCC2CCCC2)cc1F [Example 229, 4-[4-(2-cyclopentylmethoxy-pyridin-3-yl)-2,6-difluoro-phenoxy]-butyric acid]",< 200 nM
3,"CCCOc1cccc(-c2ccc(SCCCC(=O)O)cc2)n1 [Example 132, 4-[4-(6-propoxy-pyridin-2-yl)-phenylsulfanyl]-butyric acid]",< 200 nM
4,"CC(C)Sc1ncccc1-c1ccc(SCCCC(=O)O)cc1 [Example 148, 4-[4-(2-isopropylsulfanyl-pyridin-3-yl)-phenylsulfanyl]-butyric acid]",< 200 nM
5,"CC(C)Sc1cccc(-c2ccc(OCCCC(=O)O)cc2)n1 [Example 210, 4-[4-(6-isopropylsulfanyl-2-pyridyl)phenoxy]butanoic acid]",< 200 nM
6,"O=C(O)CCCOc1ccc(-c2cccc(OC3CCCC3)c2)c(F)c1F [Example 14, 4-[4-[3-(cyclopentoxy)phenyl]-2,3-difluoro-phenoxy]butyric acid]",200 to 2000 nM
7,"CC(C)(C)[Si](C)(C)OC1CCC(Oc2ncccc2-c2cc(F)c(OCCCC(=O)O)c(F)c2)C1 (centres unmarked) [Example 226, 4-(4-{2-[3-(tert-butyl-dimethyl-silanyloxy)-cyclopentyloxy]-pyridin-3-yl}-2,6-difluoro-phenoxy)-butyric acid]",> 20000 nM
8,"CC(C)Nc1ccccc1-c1cc(F)c(SCCCC(=O)O)c(F)c1 [Example 165, 4-(3,5-difluoro-2′-isopropylamino-biphenyl-4-ylsulfanyl)-butyric acid]",< 200 nM
9,"CC(C)Oc1ncccc1-c1ccc(SCCCCC(=O)O)cc1 [Example 255, 5-[4-(2-isopropoxy-pyridin-3-yl)-phenylsulfanyl]-pentanoic acid]",200 to 2000 nM
10,"O=C(O)CCCSc1ccc(-c2cccc(Oc3ccccc3)c2)cc1 [Example 125, 4-(3′-phenoxy-biphenyl-4-ylsulfanyl)-butyric acid]",< 200 nM
11,"O=C(O)CCCSc1ccc(-c2cccc(OC3CCCC3)c2)cc1 [Example 126, 4-(3′-cyclopentyloxy-biphenyl-4-ylsulfanyl)-butyric acid]",< 200 nM
12,"O=C(O)CCCSc1c(F)cc(-c2cccnc2OC2CCCC2)cc1F [Example 145, 4-[4-(2-cyclopentyloxy-pyridin-3-yl)-2,6-difluoro-phenylsulfanyl]-butyric acid]",< 200 nM
13,"O=C(O)CCCOc1c(F)cc(-c2cccc(SC3CCCC3)n2)cc1F [Example 6, 4-[4-(6-cyclopentylsulfanyl-2-pyridyl)-2,6-difluoro-phenoxy]butyric acid]",< 200 nM
14,"O=C(O)CCCCOc1c(F)cc(-c2cccnc2OC2CCOC2)cc1F (centres unmarked) [Example 240, 5-[2,6-difluoro-4-(2-tetrahydrofuran-3-yloxy-3-pyridyl)phenoxy]pentanoic acid]",200 to 2000 nM
15,"CCCOc1ncccc1-c1cc(F)c(SCCCC(=O)O)c(F)c1 [Example 139, 4-[2,6-difluoro-4-(2-propoxy-pyridin-3-yl)-phenylsulfanyl]-butyric acid]",< 200 nM
16,"CC(C)Oc1ccc(F)cc1-c1ccc(SCCCC(=O)O)c(F)c1 [Example 188, 4-(3,5′-difluoro-2′-isopropoxy-biphenyl-4-ylsulfanyl)-butyric acid]",< 200 nM
17,"O=C(O)CCCOc1c(F)cc(-c2ccccc2CC2CCCC2)cc1F [Example 99, 4-[4-[2-(cyclopentylmethyl)phenyl]-2,6-difluoro-phenoxy]butanoic acid]",< 200 nM
18,"O=C(O)CCCOc1c(F)cc(-c2cccc(NCC3CC3)c2)cc1F [Example 90, 4-[4-[3-(cyclopropylmethylamino)phenyl]-2,6-difluoro-phenoxy]butanoic acid]",< 200 nM

row,Compound,EC50
1,"CC(C)Oc1ccccc1-c1ccc(OCCCC(=O)O)cc1 [Example 57, 4-(2′-isopropoxy-biphenyl-4-yloxy)-butyric acid]",200 to 2000 nM
2,"O=C(O)CCCOc1c(F)cc(-c2ccccc2C2CCCC2)cc1F [Example 104, 4-[4-(2-cyclopentylphenyl)-2,6-difluoro-phenoxy]butanoic acid]",< 200 nM
3,"CC(C)Oc1cccc(-c2ccc(SCCCC(=O)O)cc2)n1 [Example 130, 4-[4-(6-isopropoxy-pyridin-2-yl)-phenylsulfanyl]-butyric acid]",< 200 nM
4,"CC(C)Sc1cccc(-c2cc(F)c(OCCCC(=O)O)c(F)c2)n1 [Example 2, 4-[2,6-difluoro-4-(6-isopropylsulfanyl-2-pyridyl)phenoxy]butyric acid]",< 200 nM
5,"COc1ncccc1-c1cc(F)c(OCCCC(=O)O)c(F)c1 [Example 268, 4-[2,6-difluoro-4-(2-methoxy-pyridin-3-yl)-phenoxy]-butyric acid]",200 to 2000 nM
6,"CC(C)Sc1ncccc1-c1ccc(OCCCC(=O)O)cc1 [Example 38, 4-[4-(2-isopropylsulfanyl-pyridin-3-yl)-phenoxy]-butyric acid]",200 to 2000 nM
7,"O=C(O)CCCOc1ccc(-c2cccc(OC3CCC3)c2)nc1 [Example 35, 4-[[6-[3-(cyclobutoxy)phenyl]-3-pyridyl]oxy]butyric acid]",200 to 2000 nM
8,"O=C(O)CCCOc1c(F)cc(-c2cccc(CC3CCC3)n2)cc1F [Example 103, 4-[4-[6-(cyclobutylmethyl)-2-pyridyl]-2,6-difluoro-phenoxy]butanoic acid]",< 200 nM
9,"O=C(O)CCCSc1c(F)cc(-c2cccnc2NCC2CC2)cc1F [Example 251, 4-{4-[2-(cyclopropylmethyl-amino)-pyridin-3-yl]-2,6-difluoro-phenylsulfanyl}-butyric acid]",200 to 2000 nM
10,"O=C(O)CC1(COc2c(F)cc(-c3cccnc3SC3CCC3)cc2F)CC1 [Example 33, 2-[1-[[4-(2-cyclobutylsulfanyl-3-pyridyl)-2,6-difluoro-phenoxy]methyl]cyclopropyl]acetic acid]",200 to 2000 nM
11,"Cc1cc(F)c(OC(C)C)c(-c2ccc(SCCCC(=O)O)c(F)c2)c1 [Example 190, 4-(3,3′-difluoro-2′-isopropoxy-5′-methyl-biphenyl-4-ylsulfanyl)-butyric acid]",< 200 nM
12,"O=C(O)CCCOc1c(F)cc(-c2ccccc2CC2CCC2)cc1F [Example 101, 4-[4-[2-(cyclobutylmethyl)phenyl]-2,6-difluoro-phenoxy]butanoic acid]",< 200 nM
13,"Cc1cnc(OC2CCCC2)c(-c2cc(F)c(SCCCC(=O)O)c(F)c2)c1 [Example 198, 4-[4-(2-cyclopentyloxy-5-methyl-pyridin-3-yl)-2,6-difluoro-phenylsulfanyl]-butyri c acid]",< 200 nM
14,"O=C(O)CCCSc1c(F)cc(-c2cccnc2OCC2CCC2)cc1F [Example 248, 4-[4-(2-cyclobutylmethoxy-pyridin-3-yl)-2,6-difluoro-phenylsulfanyl]-butyric acid]",< 200 nM
15,"CC(C)Nc1ncccc1-c1cc(F)c(SCCCC(=O)O)c(F)c1 [Example 250, 4-[2,6-difluoro-4-(2-isopropylamino-pyridin-3-yl)-phenylsulfanyl]-butyric acid]",200 to 2000 nM
16,"O=C(O)CCCCCSc1c(F)cc(-c2cccnc2SC2CCCC2)cc1F [Example 277, 6-[4-(2-cyclopentylsulfanyl-pyridin-3-yl)-2,6-difluoro-phenylsulfanyl]-hexanoic acid]",200 to 2000 nM
17,"O=C(O)CCCOc1ccc(-c2ccccc2NC2CCC2)cc1 [Example 88, 4-[4-[2-(cyclobutylamino)phenyl]phenoxy]butanoic acid]",200 to 2000 nM
